Measurements from patent EP3753932A1, “SUBSTITUTED BICYCLIC DERIVATIVES HAVING MULTIMODAL ACTIVITY AGAINST PAIN” (priority 2019, dated 2020).
pKi: −log10 of the molar value. Like-named read-outs stand apart in the source and are kept apart here.

Experiments:
[1] = target: Human α2δ-1 subunit of Cav2.2 calcium channel (Homo sapiens, UniProt P54289); experiment: Human α2δ-1 subunit of Cav2.2 calcium channel assay ([3H]-Gabapentin binding)
Description: Human α2δ-1 subunit of Cav2.2 calcium channel assay
Human α2δ-1 enriched membranes (2.5 µg) were incubated with 15 nM of radiolabeled [3H]-Gabapentin in assay buffer containing Hepes-KOH 10mM, pH 7.4. NSB (non specific binding) was measured by adding 10 µM pregabalin. The binding of the test compound was measured at either one concentration (% inhibition at 1 or 10 µM) or five different concentrations to determine affinity values (Ki). After 60 min incubation at 27 °C, binding reaction was terminated by filtering through Multiscreen GF/C (Millipore) presoaked in 0.5 % polyethyleneimine in Vacuum Manifold Station, followed by 3 washes with ice-cold filtration buffer containing 50 mM Tris-HCl, pH 7.4. Filter plates were dried at 60 °C for 1 hour and 30 µl of scintillation cocktail were added to each well before radioactivity reading. Readings were performed in a Trilux 1450 Microbeta radioactive counter (Perkin Elmer).

[2] = target: T1, Human µ-opioid receptor (Homo sapiens, UniProt P35372); experiment: Human µ-opioid receptor radioligand assay ([3H]-DAMGO); assay type: binding
T1 construct: expressed in transfected cells; host or cells: CHO-K1
T1 sequence (P35372 whole entry): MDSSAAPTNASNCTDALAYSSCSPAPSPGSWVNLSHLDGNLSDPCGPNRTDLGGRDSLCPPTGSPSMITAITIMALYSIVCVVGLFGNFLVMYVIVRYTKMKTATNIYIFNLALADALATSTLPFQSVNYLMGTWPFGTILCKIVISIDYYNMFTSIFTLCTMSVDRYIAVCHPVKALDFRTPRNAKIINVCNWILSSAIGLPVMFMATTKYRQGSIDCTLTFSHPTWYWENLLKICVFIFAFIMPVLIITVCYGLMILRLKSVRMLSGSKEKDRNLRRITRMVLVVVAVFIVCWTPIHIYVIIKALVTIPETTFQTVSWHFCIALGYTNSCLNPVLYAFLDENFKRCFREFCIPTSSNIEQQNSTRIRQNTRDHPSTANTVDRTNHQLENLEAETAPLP
Description: Human µ-opioid receptor radioligand assay
Transfected CHO-K1 cell membranes (20 µg) were incubated with [^3H]-DAMGO (1 nM) in assay buffer containing Tris-HCl 50 mM, MgCl2 5 mM at pH 7.4. NBS (non-specific binding) was measured by adding 10 µM Naloxone. The binding of the test compound was measured at either one concentration (% inhibition at 1 or 10 µM) or five different concentrations to determine affinity values (Ki). Plates were incubated at 27 °C for 60 min. After the incubation period, the reaction mixture was then transferred to MultiScreen HTS, FC plates (Millipore), filtered and plates were washed 3 times with ice-cold 10 mM Tris-HCl (pH 7.4). Filters were dried and counted at approximately 40% efficiency in a MicroBeta scintillation counter (Perkin-Elmer) using EcoScint liquid scintillation cocktail.

[3] = human α2δ-1 enriched membranes, [3H]-Gabapentin 15 nM, read-out: α2δ-1 binding
[4] = transfected CHO-K1 cell membranes, [3H]-DAMGO 1 nM, read-out: µ-binding

Sequence of Human α2δ-1 subunit of Cav2.2 calcium channel (P54289 25-1103): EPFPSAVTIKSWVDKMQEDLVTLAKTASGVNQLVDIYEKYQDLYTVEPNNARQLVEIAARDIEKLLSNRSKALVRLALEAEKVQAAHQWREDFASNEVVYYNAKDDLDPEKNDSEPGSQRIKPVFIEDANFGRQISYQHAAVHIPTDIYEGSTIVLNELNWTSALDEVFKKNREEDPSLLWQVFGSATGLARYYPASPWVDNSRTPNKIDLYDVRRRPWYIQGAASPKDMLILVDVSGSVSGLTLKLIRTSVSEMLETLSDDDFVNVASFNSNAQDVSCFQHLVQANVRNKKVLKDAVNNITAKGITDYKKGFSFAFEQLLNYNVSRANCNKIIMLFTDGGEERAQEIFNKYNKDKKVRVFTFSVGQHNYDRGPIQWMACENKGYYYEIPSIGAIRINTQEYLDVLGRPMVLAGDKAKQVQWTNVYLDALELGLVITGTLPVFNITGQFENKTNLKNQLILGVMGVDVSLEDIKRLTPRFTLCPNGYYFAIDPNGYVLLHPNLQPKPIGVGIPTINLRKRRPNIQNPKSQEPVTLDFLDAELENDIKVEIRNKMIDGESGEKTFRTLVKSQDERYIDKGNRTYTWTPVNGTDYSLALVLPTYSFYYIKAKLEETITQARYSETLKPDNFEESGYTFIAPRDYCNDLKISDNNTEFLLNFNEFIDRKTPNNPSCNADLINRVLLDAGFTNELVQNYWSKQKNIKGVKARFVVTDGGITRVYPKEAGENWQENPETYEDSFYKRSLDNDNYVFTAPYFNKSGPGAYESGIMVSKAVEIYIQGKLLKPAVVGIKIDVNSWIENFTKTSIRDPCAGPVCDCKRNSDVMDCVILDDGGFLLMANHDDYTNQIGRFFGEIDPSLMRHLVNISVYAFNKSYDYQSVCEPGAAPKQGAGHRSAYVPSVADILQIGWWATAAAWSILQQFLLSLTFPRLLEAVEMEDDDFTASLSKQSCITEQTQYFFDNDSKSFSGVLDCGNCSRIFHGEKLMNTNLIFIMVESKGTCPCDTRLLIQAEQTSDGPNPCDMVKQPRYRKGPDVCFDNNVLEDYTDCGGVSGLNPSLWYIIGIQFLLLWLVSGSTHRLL

SMILES	pKi [1, 3]	pKi [2]	pKi [1]	pKi [2, 4]
CCCC(c1ccc2cc(N3CCC(c4cccc(O)c4)(N(C)C)CC3)ccc2n1)N1C[C@@H](C)N[C@@H](C)C1 (stereo partly drawn) [Example 3, 3-(4-(Dimethylamino)-1-(2-(1-((3S,5R)-3,5-dimethylpiperazin-1-yl)butyl)quinolin-6-yl)piperidin-4-yl)phenol]	5.30 to 6.30	> 7.00	–	–
CCC[C@@H](c1cnc2cc(CN3CCC(c4ccccc4)(N(C)C)CC3)ccc2c1)N1C[C@@H](C)N[C@@H](C)C1 [Example 13, 1-((3-((S)-1-((3S,5R)-3,5-Dimethylpiperazin-1-yl)butyl)quinolin-7-yl)methyl)-N,N-dimethyl-4-phenylpiperidin-4-amine]	< 5.30	6.30 to 7.00	–	–
CCCC(c1cnc2cc(N3CCC(c4cccc(O)c4)(N(C)C)CC3)ccc2n1)N1C[C@@H](C)N[C@@H](C)C1 (stereo partly drawn) [Example 32, 3-(4-(Dimethylamino)-1-(2-(1-((3S,5R)-3,5-dimethylpiperazin-1-yl)butyl)quinoxalin-6-yl)piperidin-4-yl)phenol]	5.30 to 6.30	> 7.00	–	–
CCC[C@@H](c1ccc2cc(CN3CCC(c4cccc(O)c4)(N(C)C)CC3)ccc2n1)N1C[C@@H](C)N[C@@H](C)C1 [Example 11, 3-(4-(Dimethylamino)-1-((2-((S)-1-((3S,5R)-3,5-dimethylpiperazin-1-yl)butyl)quinolin-6-yl)methyl)piperidin-4-yl)phenol]	5.30 to 6.30	> 7.00	–	–
CCC[C@@H](c1cnc2cc(N3CCC(c4cccc(O)c4)(N(C)C)CC3)ccc2c1)N1C[C@@H](C)N[C@@H](C)C1 [Example 5, 3-(4-(Dimethylamino)-1-(3-((S)-1-((3S,5R)-3,5-dimethylpiperazin-1-yl)butyl)quinolin-7-yl)piperidin-4-yl)phenol]	< 5.30	> 7.00	–	–
CCC[C@@H](c1cnc2ccc(CN3CCC(c4cccc(O)c4)(N(C)C)CC3)cc2c1)N1C[C@@H](C)N[C@@H](C)C1 [Example 17, 3-(4-(Dimethylamino)-1-((3-((S)-1-((3S,5R)-3,5-dimethylpiperazin-1-yl)butyl)quinolin-6-yl)methyl)piperidin-4-yl)phenol]	< 5.30	> 7.00	–	–
CCC[C@H](c1cnc2ccc(CN3CCC(c4cccc(O)c4)(N(C)C)CC3)cc2n1)N1C[C@@H](C)N[C@@H](C)C1 [Example 38, 3-(4-(Dimethylamino)-1-((3-((R)-1-((3S,5R)-3,5-dimethylpiperazin-1-yl)butyl)quinoxalin-6-yl)methyl)piperidin-4-yl)phenol]	–	–	> 6.30	> 7.00
CCC[C@H](c1cnc2ccc(CN3CCC(c4cccc(O)c4)(N(C)C)CC3)cc2c1)N1C[C@@H](C)N[C@@H](C)C1 [Example 16, 3-(4-(Dimethylamino)-1-((3-((R)-1-((3S,5R)-3,5-dimethylpiperazin-1-yl)butyl)quinolin-6-yl)methyl)piperidin-4-yl)phenol]	–	–	> 6.30	> 7.00
CCCC(c1cc2cc(CN3CCC(c4cccc(O)c4)(N(C)C)CC3)ccc2nc1CC)N1C[C@@H](C)N[C@@H](C)C1 (stereo partly drawn) [Example 22, 3-(4-(Dimethylamino)-1-((3-(1-((3S,5R)-3,5-dimethylpiperazin-1-yl)butyl)-2-ethylquinolin-6-yl)methyl)piperidin-4-yl)phenol]	5.30 to 6.30	> 7.00	–	–
CCC[C@H](c1cnc2ccc(CN3CCC(c4ccccc4)(N(C)C)CC3)cc2c1)N1C[C@@H](C)N[C@@H](C)C1 [Example 18, 1-((3-((R)-1-((3S,5R)-3,5-Dimethylpiperazin-1-yl)butyl)quinolin-6-yl)methyl)-N,N-dimethyl-4-phenylpiperidin-4-amine]	5.30 to 6.30	6.30 to 7.00	–	–
CCC[C@@H](c1ncc2cc(N3CCC(c4cccc(O)c4)(N(C)C)CC3)ccc2n1)N1C[C@@H](C)N[C@@H](C)C1 [Example 27, 3-(4-(Dimethylamino)-1-(2-((S)-1-((3S,5R)-3,5-dimethylpiperazin-1-yl)butyl)quinazolin-6-yl)piperidin-4-yl)phenol]	–	–	< 5.30	> 7.00
CCCC(c1cc(OC)c2cc(N3CCC(c4ccccc4)(N(C)C)CC3)ccc2n1)N1C[C@@H](C)N[C@@H](C)C1 (stereo partly drawn) [Example 31, 1-(2-(1-((3S,5R)-3,5-Dimethylpiperazin-1-yl)butyl)-4-methoxyquinolin-6-yl)-N,N-dimethyl-4-phenylpiperidin-4-amine]	–	–	> 6.30	6.30 to 7.00
CCCC(c1cnc2ccc(N3CCC(c4cccc(O)c4)(N(C)C)CC3)cc2c1)N1C[C@@H](C)N[C@@H](C)C1 (stereo partly drawn) [Example 14, 3-(4-(Dimethylamino)-1-(3-(1-((3S,5R)-3,5-dimethylpiperazin-1-yl)butyl)quinolin-6-yl)piperidin-4-yl)phenol]	–	–	> 6.30	< 6.30
CCCC(c1ccc2cc(N3CCC(c4cccc(O)c4)(N(C)C)CC3)ccc2c1)N1C[C@@H](C)N[C@@H](C)C1 (stereo partly drawn) [Example 1, 3-(4-(Dimethylamino)-1-(6-(1-((3S,5R)-3,5-dimethylpiperazin-1-yl)butyl)naphthalen-2-yl)piperidin-4-yl)phenol]	–	–	< 5.30	> 7.00
CCCC(c1cnc2cc(N3CCC(c4cccc(O)c4)(N(C)C)CC3)ccc2c1)N1C[C@@H](C)N[C@@H](C)C1 (stereo partly drawn) [Example 2, 3-(4-(Dimethylamino)-1-(3-(1-((3S,5R)-3,5-dimethylpiperazin-1-yl)butyl)quinolin-7-yl)piperidin-4-yl)phenol]	5.30 to 6.30	> 7.00	–	–
CCCC(c1cc2ccc(CN3CCC(c4cccc(O)c4)(N(C)C)CC3)cc2nc1CC)N1C[C@@H](C)N[C@@H](C)C1 (stereo partly drawn) [Example 21, 3-(4-(Dimethylamino)-1-((3-(1-((3S,5R)-3,5-dimethylpiperazin-1-yl)butyl)-2-ethylquinolin-7-yl)methyl)piperidin-4-yl)phenol]	–	–	> 6.30	> 7.00
CCC[C@H](c1cc2ccc(CN3CCC(c4cccc(O)c4)(N(C)C)CC3)cc2nc1CC)N1C[C@@H](C)N[C@@H](C)C1 [Example 23, 3-(4-(Dimethylamino)-1-((3-((R)-1-((3S,5R)-3,5-dimethylpiperazin-1-yl)butyl)-2-ethylquinolin-7-yl)methyl)piperidin-4-yl)phenol]	–	–	> 6.30	> 7.00
